{"source": "patent US11691980B2", "about": "“Liphagal analog and multi-targeted kinase inhibitor containing liphagal or analog thereof” (TOHOKU UNIVERSITY, priority 2017, dated 2023)", "assay_type_in_all_cases": "biochemical", "key": {"[1]": {"tested_on": "MAP3K4_Cascade", "experiment": "mobility shift assay", "conditions": "10 μM"}, "[2]": {"molecular_target": "T1, TRKA (Homo sapiens, UniProt P04629)", "T1 construct": "purchased Carna Biosciences", "T1 sequence (P04629 33-796)": "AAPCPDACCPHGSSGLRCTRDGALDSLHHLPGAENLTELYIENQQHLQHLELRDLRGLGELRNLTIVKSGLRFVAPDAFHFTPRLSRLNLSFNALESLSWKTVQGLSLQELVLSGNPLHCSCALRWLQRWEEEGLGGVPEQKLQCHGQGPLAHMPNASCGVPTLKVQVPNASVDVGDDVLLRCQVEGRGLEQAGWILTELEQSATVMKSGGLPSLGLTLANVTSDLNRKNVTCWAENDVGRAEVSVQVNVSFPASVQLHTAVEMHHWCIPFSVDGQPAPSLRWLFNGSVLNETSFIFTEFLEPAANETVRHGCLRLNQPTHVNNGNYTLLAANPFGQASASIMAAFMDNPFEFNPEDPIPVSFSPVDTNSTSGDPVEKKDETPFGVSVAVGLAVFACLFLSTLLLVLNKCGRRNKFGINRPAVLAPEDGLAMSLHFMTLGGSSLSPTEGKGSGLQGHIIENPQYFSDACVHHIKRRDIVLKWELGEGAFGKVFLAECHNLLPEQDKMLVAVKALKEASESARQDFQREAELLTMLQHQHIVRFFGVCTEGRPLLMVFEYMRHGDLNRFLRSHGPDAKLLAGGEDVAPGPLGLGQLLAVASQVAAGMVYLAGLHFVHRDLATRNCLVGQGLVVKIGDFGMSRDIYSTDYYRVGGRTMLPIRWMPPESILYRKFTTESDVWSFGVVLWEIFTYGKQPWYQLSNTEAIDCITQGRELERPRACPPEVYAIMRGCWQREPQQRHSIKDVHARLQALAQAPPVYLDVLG", "experiment": "mobility shift assay"}, "[3]": {"molecular_target": "T2, PLK1 (Homo sapiens, UniProt P53350)", "T2 construct": "purchased Carna Biosciences", "experiment": "mobility shift assay"}, "[4]": {"molecular_target": "T3, MOS_Cascade (Homo sapiens, UniProt P00540)", "T3 construct": "purchased Carna Biosciences", "experiment": "mobility shift assay"}, "[5]": {"molecular_target": "T4, PIM 3 (Homo sapiens, UniProt Q86V86)", "T4 construct": "purchased Carna Biosciences", "experiment": "mobility shift assay"}, "[6]": {"molecular_target": "T5, MLK3_Cascade (Homo sapiens, UniProt Q16584)", "T5 construct": "purchased Carna Biosciences", "experiment": "mobility shift assay"}, "[7]": {"molecular_target": "T6, CDK9/CvcT1 (Homo sapiens, UniProt P50750)", "T6 construct": "purchased Carna Biosciences", "experiment": "mobility shift assay"}, "[8]": {"molecular_target": "T7, CDK5/p25 (Homo sapiens, UniProt Q00535)", "T7 construct": "purchased Carna Biosciences", "T7 sequence (Q00535 whole entry)": "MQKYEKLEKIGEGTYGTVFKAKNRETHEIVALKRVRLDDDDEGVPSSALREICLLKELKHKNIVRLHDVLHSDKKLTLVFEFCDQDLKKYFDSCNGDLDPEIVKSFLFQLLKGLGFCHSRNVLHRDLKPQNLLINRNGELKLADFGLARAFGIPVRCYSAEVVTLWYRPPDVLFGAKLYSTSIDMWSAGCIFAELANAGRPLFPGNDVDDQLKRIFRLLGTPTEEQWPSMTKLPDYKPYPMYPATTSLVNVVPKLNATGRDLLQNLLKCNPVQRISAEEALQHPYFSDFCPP", "T7 sequence (Q15078 99-307 partner limits assumed)": "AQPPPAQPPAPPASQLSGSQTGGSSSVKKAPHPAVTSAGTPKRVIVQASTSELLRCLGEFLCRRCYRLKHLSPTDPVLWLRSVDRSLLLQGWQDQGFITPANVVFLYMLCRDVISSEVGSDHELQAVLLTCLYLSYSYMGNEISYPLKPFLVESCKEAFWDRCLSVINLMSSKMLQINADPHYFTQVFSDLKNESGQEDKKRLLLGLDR", "experiment": "mobility shift assay"}, "[9]": {"molecular_target": "T8, DLK_Cascade (Homo sapiens, UniProt Q12852)", "T8 construct": "purchased Carna Biosciences", "experiment": "mobility shift assay"}, "[10]": {"molecular_target": "T9, NEK1 (Homo sapiens, UniProt Q96PY6)", "T9 construct": "purchased Carna Biosciences", "experiment": "mobility shift assay"}, "[11]": {"molecular_target": "T10, KIT(D816V) (Homo sapiens, UniProt P10721, D816V)", "T10 construct": "purchased Carna Biosciences", "T10 sequence (P10721 26-976 D816V)": "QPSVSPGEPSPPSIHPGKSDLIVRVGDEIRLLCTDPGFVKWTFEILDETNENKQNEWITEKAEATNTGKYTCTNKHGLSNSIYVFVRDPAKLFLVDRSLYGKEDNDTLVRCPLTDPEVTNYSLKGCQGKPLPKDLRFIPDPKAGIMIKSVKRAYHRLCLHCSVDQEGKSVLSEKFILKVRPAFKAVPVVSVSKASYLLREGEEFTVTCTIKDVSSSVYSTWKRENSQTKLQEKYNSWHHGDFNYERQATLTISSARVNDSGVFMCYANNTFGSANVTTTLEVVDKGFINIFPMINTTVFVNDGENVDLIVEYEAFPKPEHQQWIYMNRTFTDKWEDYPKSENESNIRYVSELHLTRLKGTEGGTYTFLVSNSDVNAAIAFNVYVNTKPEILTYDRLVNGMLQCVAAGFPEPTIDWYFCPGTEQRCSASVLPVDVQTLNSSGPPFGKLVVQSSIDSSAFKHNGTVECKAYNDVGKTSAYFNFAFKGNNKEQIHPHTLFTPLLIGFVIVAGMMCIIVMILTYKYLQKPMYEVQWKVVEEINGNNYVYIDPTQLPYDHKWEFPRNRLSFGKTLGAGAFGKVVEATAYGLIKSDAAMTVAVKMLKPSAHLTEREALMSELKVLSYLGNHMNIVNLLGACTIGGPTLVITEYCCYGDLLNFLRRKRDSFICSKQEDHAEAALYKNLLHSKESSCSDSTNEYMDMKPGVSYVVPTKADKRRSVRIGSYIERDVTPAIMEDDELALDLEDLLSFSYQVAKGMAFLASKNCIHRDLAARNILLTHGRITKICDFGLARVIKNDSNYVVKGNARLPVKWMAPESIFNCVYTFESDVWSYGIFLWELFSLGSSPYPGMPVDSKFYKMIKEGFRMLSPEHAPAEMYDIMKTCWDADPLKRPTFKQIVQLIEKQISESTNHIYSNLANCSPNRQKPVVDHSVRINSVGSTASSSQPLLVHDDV", "experiment": "mobility shift assay"}, "[12]": {"molecular_target": "T11, SGK (Homo sapiens, UniProt O00141)", "T11 construct": "purchased Carna Biosciences", "experiment": "mobility shift assay"}, "[13]": {"molecular_target": "T12, SGK2 (Homo sapiens, UniProt Q9HBY8)", "T12 construct": "purchased Carna Biosciences", "experiment": "mobility shift assay"}, "[14]": {"tested_on": "MAP2K4 Cascade", "experiment": "mobility shift assay", "conditions": "10 μM"}, "[15]": {"molecular_target": "T13, CK2α2/β (Homo sapiens, UniProt P19784)", "T13 construct": "purchased Carna Biosciences", "experiment": "mobility shift assay"}, "[16]": {"molecular_target": "T14, CSK (Homo sapiens, UniProt P41240)", "T14 construct": "purchased Carna Biosciences", "experiment": "mobility shift assay"}, "[17]": {"molecular_target": "T15, CDK2/CycE1 (Homo sapiens, UniProt P24941)", "T15 construct": "purchased Carna Biosciences", "experiment": "mobility shift assay"}, "[18]": {"molecular_target": "T16, MSK1 (Homo sapiens, UniProt O75582)", "T16 construct": "purchased Carna Biosciences", "experiment": "mobility shift assay"}, "[19]": {"molecular_target": "T17, OK1δ (Homo sapiens, UniProt P48730)", "T17 construct": "purchased Carna Biosciences", "experiment": "mobility shift assay"}, "[20]": {"molecular_target": "T18, NEK2 (Homo sapiens, UniProt P51955)", "T18 construct": "purchased Carna Biosciences", "experiment": "mobility shift assay"}, "[21]": {"molecular_target": "T19, NPM1-ALK (Homo sapiens, UniProt Q9UM73)", "T19 construct": "purchased Carna Biosciences; the other entry of the earlier key: NPM1 (P06748, Nucleophosmin)", "experiment": "mobility shift assay"}, "[22]": {"molecular_target": "T20, EPHA5 (Homo sapiens, UniProt P54756)", "T20 construct": "purchased Carna Biosciences", "experiment": "mobility shift assay"}, "[23]": {"molecular_target": "T21, MER (Homo sapiens, UniProt Q12866)", "T21 construct": "purchased Carna Biosciences", "experiment": "mobility shift assay"}, "[24]": {"molecular_target": "T22, EML4-ALK (Homo sapiens, UniProt Q9UM73)", "T22 construct": "EML4 (fusion partner, Q9HC35); purchased Carna Biosciences; the other entry of the earlier key: EML4 (Q9HC35, Echinoderm microtubule-associated protein-like 4)", "experiment": "mobility shift assay"}, "[25]": {"molecular_target": "T23, ROCK1 (Homo sapiens, UniProt Q13464)", "T23 construct": "purchased Carna Biosciences", "experiment": "mobility shift assay"}, "[26]": {"tested_on": "MNK", "experiment": "mobility shift assay", "conditions": "10 μM"}, "[27]": {"molecular_target": "T24, p38δ (Homo sapiens, UniProt O15264)", "T24 construct": "purchased Carna Biosciences", "experiment": "mobility shift assay"}, "[28]": {"molecular_target": "T25, ALK(G1202R) (Homo sapiens, UniProt Q9UM73, G1202R)", "T25 construct": "purchased Carna Biosciences", "experiment": "mobility shift assay"}, "[29]": {"molecular_target": "T26, EGFR(T790M) (Homo sapiens, UniProt P00533, T790M)", "T26 construct": "purchased Carna Biosciences", "experiment": "mobility shift assay"}, "[30]": {"molecular_target": "T27, FGFR1 (Homo sapiens, UniProt P11362)", "T27 construct": "purchased Carna Biosciences", "experiment": "mobility shift assay"}, "[31]": {"molecular_target": "T28, EGFR(α746-750) (Homo sapiens, UniProt P00533, DEL746-750)", "T28 construct": "purchased Carna Biosciences", "experiment": "mobility shift assay"}, "[32]": {"molecular_target": "T29, TYRO3 (Homo sapiens, UniProt Q06418)", "T29 construct": "purchased Carna Biosciences", "T29 sequence (Q06418 41-890)": "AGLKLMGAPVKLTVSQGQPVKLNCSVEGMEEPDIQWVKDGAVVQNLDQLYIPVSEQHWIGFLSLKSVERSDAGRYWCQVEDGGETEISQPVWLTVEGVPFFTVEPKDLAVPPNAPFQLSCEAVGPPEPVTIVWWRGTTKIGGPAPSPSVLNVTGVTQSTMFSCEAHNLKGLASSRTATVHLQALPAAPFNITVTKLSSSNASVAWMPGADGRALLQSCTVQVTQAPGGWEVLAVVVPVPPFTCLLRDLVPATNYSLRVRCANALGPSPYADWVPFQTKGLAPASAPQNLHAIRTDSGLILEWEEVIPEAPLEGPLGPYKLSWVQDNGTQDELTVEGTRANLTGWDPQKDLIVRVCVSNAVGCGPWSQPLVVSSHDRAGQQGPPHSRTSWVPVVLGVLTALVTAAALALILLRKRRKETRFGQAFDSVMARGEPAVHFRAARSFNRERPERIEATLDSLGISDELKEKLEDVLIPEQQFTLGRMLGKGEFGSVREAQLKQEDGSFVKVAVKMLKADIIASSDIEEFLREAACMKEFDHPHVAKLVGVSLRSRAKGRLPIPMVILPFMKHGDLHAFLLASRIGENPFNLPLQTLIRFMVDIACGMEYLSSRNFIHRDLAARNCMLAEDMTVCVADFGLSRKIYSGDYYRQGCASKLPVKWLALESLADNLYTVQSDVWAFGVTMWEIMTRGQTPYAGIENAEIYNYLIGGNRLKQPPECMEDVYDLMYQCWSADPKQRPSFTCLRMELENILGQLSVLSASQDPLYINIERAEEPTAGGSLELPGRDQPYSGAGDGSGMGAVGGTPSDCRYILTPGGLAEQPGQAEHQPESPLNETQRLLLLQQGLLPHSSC", "experiment": "mobility shift assay"}, "[33]": {"molecular_target": "T30, PKCθ (Homo sapiens, UniProt Q04759)", "T30 construct": "purchased Carna Biosciences", "experiment": "mobility shift assay"}, "[34]": {"molecular_target": "T31, PDK1 (Homo sapiens, UniProt O15530)", "T31 construct": "purchased Carna Biosciences", "T31 sequence (O15530 whole entry)": "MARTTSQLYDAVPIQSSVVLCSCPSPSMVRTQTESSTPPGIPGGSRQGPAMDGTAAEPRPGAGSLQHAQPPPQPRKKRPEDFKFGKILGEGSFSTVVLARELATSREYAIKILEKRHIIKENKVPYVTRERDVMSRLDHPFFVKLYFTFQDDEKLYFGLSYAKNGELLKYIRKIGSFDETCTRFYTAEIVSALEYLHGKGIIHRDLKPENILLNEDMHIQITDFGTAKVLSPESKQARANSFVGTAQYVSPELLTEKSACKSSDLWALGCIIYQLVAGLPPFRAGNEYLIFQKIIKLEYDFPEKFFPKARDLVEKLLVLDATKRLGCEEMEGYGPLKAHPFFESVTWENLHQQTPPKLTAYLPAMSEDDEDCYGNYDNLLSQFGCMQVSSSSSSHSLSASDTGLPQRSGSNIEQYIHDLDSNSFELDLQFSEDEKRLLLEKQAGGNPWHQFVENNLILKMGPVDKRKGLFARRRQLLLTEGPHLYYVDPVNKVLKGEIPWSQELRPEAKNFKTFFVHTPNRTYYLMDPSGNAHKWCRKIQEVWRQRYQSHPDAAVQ", "experiment": "mobility shift assay"}, "[35]": {"molecular_target": "CDK7/CycHMAT1 (Homo sapiens, UniProt P50613)", "experiment": "IC50 by mobility shift assay", "conditions": "Table 2, mobility shift assay; read-out: IC50 (μM), Kinase CDK7/CycH/MAT1", "excerpt": "(§1) The compounds produced in Production Examples described above were each assessed for its inhibitory activity against CDK7, PIM2, and PI3K by mobility shift assay. In addition, a combination showing the highest inhibitory activity against each kinase is indicated by italics."}, "[36]": {"molecular_target": "PIM2 (Homo sapiens, UniProt Q9P1W9)", "sequence (Q9P1W9 whole entry)": "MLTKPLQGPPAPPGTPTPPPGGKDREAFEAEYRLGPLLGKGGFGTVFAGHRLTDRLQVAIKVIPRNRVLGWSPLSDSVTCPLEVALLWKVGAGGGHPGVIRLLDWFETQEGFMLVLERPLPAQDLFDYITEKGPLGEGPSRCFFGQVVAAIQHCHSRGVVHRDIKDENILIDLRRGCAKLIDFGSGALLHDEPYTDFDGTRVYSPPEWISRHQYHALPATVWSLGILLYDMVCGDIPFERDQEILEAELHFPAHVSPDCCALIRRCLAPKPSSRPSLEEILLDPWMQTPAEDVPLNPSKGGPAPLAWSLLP", "experiment": "IC50 by mobility shift assay", "conditions": "Table 2, mobility shift assay; read-out: IC50 (μM), Kinase PIM2", "excerpt": "as §1"}, "[37]": {"molecular_target": "CDK4/CycD3 (Homo sapiens, UniProt P11802)", "sequence (P11802 whole entry)": "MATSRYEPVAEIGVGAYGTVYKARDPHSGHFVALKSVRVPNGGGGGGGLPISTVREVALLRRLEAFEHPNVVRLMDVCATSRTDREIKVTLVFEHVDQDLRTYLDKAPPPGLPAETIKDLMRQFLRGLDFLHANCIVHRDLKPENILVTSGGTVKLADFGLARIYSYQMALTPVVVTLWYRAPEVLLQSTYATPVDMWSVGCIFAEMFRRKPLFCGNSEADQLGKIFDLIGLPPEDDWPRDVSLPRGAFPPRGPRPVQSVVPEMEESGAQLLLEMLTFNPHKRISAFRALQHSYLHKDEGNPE", "sequence (P30281 whole entry partner)": "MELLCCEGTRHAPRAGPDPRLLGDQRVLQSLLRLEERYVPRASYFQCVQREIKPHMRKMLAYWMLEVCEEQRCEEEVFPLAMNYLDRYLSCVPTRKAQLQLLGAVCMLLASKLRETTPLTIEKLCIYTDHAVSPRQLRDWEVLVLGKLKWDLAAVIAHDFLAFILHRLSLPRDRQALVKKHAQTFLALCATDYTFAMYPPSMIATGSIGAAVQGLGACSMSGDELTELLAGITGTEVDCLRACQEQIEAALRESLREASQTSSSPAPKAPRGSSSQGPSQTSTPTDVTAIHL", "experiment": "IC50 by mobility shift assay", "conditions": "Table 3, CDK4, mobility shift assay; read-out: IC50 (μM), Kinase CDK4/CycD3", "excerpt": "Next, the compounds produced in Production Examples described above were each assessed for its inhibitory activity against CDK4 by mobility shift assay. In addition, a combination showing the highest inhibitory activity is indicated by italics."}}}
{"smiles": "C[C@@H]1CC[C@H]2C(C)(C)CCC[C@]2(C)c2c1oc1c(C=O)c(O)c(O)cc21", "note": "[LG-1, liphagal]", "values": [{"measurement": "% Inhibition", "setting": "[1]", "result": 62.9, "unit": "%"}, {"measurement": "inhibition at 10 µM", "setting": "[2]", "result": 36.4, "unit": "%"}, {"measurement": "inhibition at 10 µM", "setting": "[3]", "result": 31.3, "unit": "%"}, {"measurement": "inhibition at 10 µM", "setting": "[4]", "result": 29.5, "unit": "%"}, {"measurement": "inhibition at 10 µM", "setting": "[5]", "result": 28.9, "unit": "%"}, {"measurement": "inhibition at 10 µM", "setting": "[6]", "result": 19.5, "unit": "%"}, {"measurement": "inhibition at 10 µM", "setting": "[7]", "result": 18.8, "unit": "%"}, {"measurement": "inhibition at 10 µM", "setting": "[8]", "result": 17.8, "unit": "%"}, {"measurement": "inhibition at 10 µM", "setting": "[9]", "result": 13.9, "unit": "%"}, {"measurement": "inhibition at 10 µM", "setting": "[10]", "result": 13.9, "unit": "%"}, {"measurement": "inhibition at 10 µM", "setting": "[11]", "result": 13, "unit": "%"}, {"measurement": "inhibition at 10 µM", "setting": "[12]", "result": 12.4, "unit": "%"}, {"measurement": "inhibition at 10 µM", "setting": "[13]", "result": 9.3, "unit": "%"}, {"measurement": "% Inhibition", "setting": "[14]", "result": 9.1, "unit": "%"}, {"measurement": "inhibition at 10 µM", "setting": "[15]", "result": 9, "unit": "%"}, {"measurement": "inhibition at 10 µM", "setting": "[16]", "result": 7.2, "unit": "%"}, {"measurement": "inhibition at 10 µM", "setting": "[17]", "result": 6.9, "unit": "%"}, {"measurement": "inhibition at 10 µM", "setting": "[18]", "result": 5, "unit": "%"}, {"measurement": "inhibition at 10 µM", "setting": "[19]", "result": 4.1, "unit": "%"}, {"measurement": "inhibition at 10 µM", "setting": "[20]", "result": 3.5, "unit": "%"}, {"measurement": "inhibition at 10 µM", "setting": "[21]", "result": 2.3, "unit": "%"}, {"measurement": "inhibition at 10 µM", "setting": "[22]", "result": 2.3, "unit": "%"}, {"measurement": "inhibition at 10 µM", "setting": "[23]", "result": 2.1, "unit": "%"}, {"measurement": "inhibition at 10 µM", "setting": "[24]", "result": 1.1, "unit": "%"}, {"measurement": "inhibition at 10 µM", "setting": "[25]", "result": 0.5, "unit": "%"}, {"measurement": "% Inhibition", "setting": "[26]", "result": 0.0, "unit": "%"}, {"measurement": "inhibition at 10 µM", "setting": "[27]", "result": -0.1, "unit": "%"}, {"measurement": "inhibition at 10 µM", "setting": "[28]", "result": -0.3, "unit": "%"}, {"measurement": "inhibition at 10 µM", "setting": "[29]", "result": -2, "unit": "%"}, {"measurement": "inhibition at 10 µM", "setting": "[30]", "result": -2.3, "unit": "%"}, {"measurement": "inhibition at 10 µM", "setting": "[31]", "result": -5.1, "unit": "%"}, {"measurement": "inhibition at 10 µM", "setting": "[32]", "result": -6.6, "unit": "%"}, {"measurement": "inhibition at 10 µM", "setting": "[33]", "result": -15, "unit": "%"}, {"measurement": "inhibition at 10 µM", "setting": "[34]", "result": -97.8, "unit": "%"}, {"measurement": "IC50", "setting": "[35]", "result": 1.27, "unit": "µM"}, {"measurement": "IC50", "setting": "[36]", "result": 5.31, "unit": "µM"}, {"measurement": "IC50", "setting": "[37]", "result": 19.9, "unit": "µM"}]}
